Assay results published in paper PMC10872856 (The Prostate, 2023).

Molecular target: T1, N-myristoyltransferase 1 (NMT1) (Homo sapiens, UniProt P30419)
T1 sequence (P30419 1-496): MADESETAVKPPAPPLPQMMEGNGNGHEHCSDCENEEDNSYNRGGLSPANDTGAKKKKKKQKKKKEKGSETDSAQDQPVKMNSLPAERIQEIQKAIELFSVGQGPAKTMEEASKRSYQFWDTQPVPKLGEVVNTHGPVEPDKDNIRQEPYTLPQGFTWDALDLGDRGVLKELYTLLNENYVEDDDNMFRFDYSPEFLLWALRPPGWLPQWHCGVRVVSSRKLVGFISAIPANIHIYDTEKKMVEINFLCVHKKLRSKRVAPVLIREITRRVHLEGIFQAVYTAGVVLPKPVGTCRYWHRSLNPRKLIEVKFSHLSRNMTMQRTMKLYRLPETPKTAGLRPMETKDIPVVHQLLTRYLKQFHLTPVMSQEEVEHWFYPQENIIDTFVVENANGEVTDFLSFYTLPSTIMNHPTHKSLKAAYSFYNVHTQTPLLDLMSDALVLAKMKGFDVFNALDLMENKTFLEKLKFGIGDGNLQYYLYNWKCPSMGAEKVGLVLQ
Experiment: fluorogenic CoA-release enzyme assay
Type: biochemical

## CCCCCCCCCCCCCCN[C@H](CO)[C@H](O)c1ccc([N+](=O)[O-])cc1 [LCL204, (1R,2R)-LCL204]
  IC50: 2300 nM
